Several values for one entry are separate records, joined by “and”; a condition that tells them apart may be missing. Equal values may be shown once. Values belong to the compound of their own block, whether it stands above or below them. Bridge positions count the residues as written; N and C are the ends. Square brackets hold non-standard residues; d marks the D form. Peptide text beside a SMILES is read from it. 2Nal = N[C@@H](Cc1ccc2ccccc2c1)C(=O)O; R5 = C=CCCC[C@@](C)(N)C(=O)O; S5 = C=CCCC[C@](C)(N)C(=O)O; βAla = NCCC(=O)O
Legend:
[1] = system: Colo320DM cells; experiment: cells; conditions: Colo320DM cells
Protocol: Colo320DM cells were selected for this assay as the proliferation of this particular cell line is dependent on BCL9 and β-catenin. ICG001, a known Wnt/β-catenin small molecule inhibitor, was used as a positive control. The cell viability at each treatment condition was analyzed using CellTiterGlo luminescent cell viability assay (Promega) according to the manufacturer's protocols.
Following the procedure described in Example 2, the ability of WX-035 to inhibit cell growth was tested in a cell viability assay using Colo320DM cells.

[2] = FIG. 34B
Protocol: Table printed on a drawing sheet, FIG. 34B
The patent's description of the figure: FIG. 34A and FIG. 34B show PK data for WX-035 administered to female balb/c mice (n=3). The mice were either intravenously or intraperitoneally administered with 30 mg/kg WX-035. Blood samples from each mouse were collected at 5 min, 15 min, 30 min, 1, 2, 4, 6, 8, 12, 24, 36, 48, and 72 hours post administration.
First reader's note: Substance, dose (30 mg/kg IV and IP) and species (female Balb/c nude mice, N=3) are printed in the title of FIG. 34A on the same sheet; the label F is printed once, between the mIL/min/kg row and the % row, so the mIL/min/kg row may in fact belong to CL.

[3] = system: CT26.WT cells; format: cell-based
Protocol: One of the stabilized polypeptides generated in Example 10 was tested in a cell viability assay and compared against WX-035. WX-037 was selected for this comparison study. The cell viability assay was performed with CT26.WT cells (ATCC), following the procedures described in Example 2. Briefly, 4000 cells per well of each plate were seeded with 50 μL opti-MEM medium. Each polypeptide, WX-035 or WX-037, was diluted with 2% FBS containing opti-MEM medium using 1 μL of 200× concentrated polypeptide in 99 μL of the medium. Each stock solution was diluted for testing a wide range of concentrations. 50 μL of 2× concentrated polypeptide was added to each well of the plate. Three days after the polypeptide addition, the viability of cells was measured using CellTiterGlo assay, according to the manufacturer's protocol.

[4] = system: CT26 cells; experiment: CT26 syngeneic mouse model of colon cancer (Balb/c); format: in vivo, mice
Protocol: The syngeneic mouse model of colon cancer using CT26 was then assessed. Male Balb/c mice were injected subcutaneously in the right flank with 5×10^4 CT26 cells each at approximately 5 weeks of age. […] Eight mice were included in each treatment group.
The whole blood was taken from each mouse. Lymphocytes were purified from the blood samples by Ficoll, and the cells were stained with fluorescent anti-CD4 antibody. Data were measured by flow cytometry.
As described above, the whole blood was taken from each mouse. Lymphocytes were purified from blood by Ficoll, and the cells were stained with fluorescent anti-CD8 antibody. Data were measured by flow cytometry.
To further assess whether WX-024 is capable of modulating a tumor microenvironment, tumor and blood samples were collected in anticoagulation tubes at the end of the study. Single cells separation was performed and then cells were stained for FACS analysis. For cell surface staining, CD45-PerCP-Cy5, CD4-FITC, CD8-PE-Cy7, and CD25-PE were used. For intranuclear staining, cells were permeabilized overnight and then stained with Foxp3-APC for 60 minutes.
The in vivo efficacy of WX-035 in treating a cancer was assessed in a syngeneic mouse model, following the procedures described in Example 5.3. Trametinib, a known MEK inhibitor, was used as a comparison. Briefly, balb/c mice were inoculated with CT26 and treatment started when tumor volume reached to about 100 mm^3. The mice were then divided into three groups and began administered with a vehicle, 40 mg/kg WX-035, or 1 mg/kg trametinib for 7 consecutive days.
At the end of the study described in Example 9.2, a tumor sample from each mouse was collected to assess the effect of WX-035 in modulating T cell activation. The FACS analysis of each tumor sample was performed following the procedure described in Example 5. A shown in FIG. 36A, treatment with WX-035 reduced the total amount of CD45^+ cells. […] Likewise, Foxp3^+ CD25^+ T cells were reduced by WX-035 treatment (FIG. 36C). […] Furthermore, by increasing the ratio of cytotoxic T cells over regulatory T cells, WX-035 may induce a microenvironment that favors an immune reaction beneficial for tumor treatment. Of note, the samples collected from this experiment were also assessed for LGR5 expression.

[5] = Pharmacokinetics in female balb/c mice; format: in vivo; conditions: mouse, plasma, 30 mg/kg intravenous or intraperitoneal
Protocol: The peptide solution was prepared at the fixed concentration of 0.5 mg/ml, and then suitable amounts were administered according to the dose. The same mixed solvent was used as a vehicle treatment. Blood samples (300 IA) were collected periodically from the retro-orbital vein at 0.25, 1, 2, 4, 6, 7, 12, and 24-hours post-dose (and 36 and 48 hours post-dose for intramuscular, subcutaneous, and intraperitoneal routes), followed by plasma separation for pending bioanalysis by LC-MS/MS. Standard PK parameters were calculated by non-compartmental analysis modules in WinNonlin Professional (v5.2, Pharsight, FDA-certified).
Two different administration routes, intravenous or intraperitoneal, were compared using 30 mg/kg WX-035. […] As observed with male ICR mice, the half-life of WX-035 in this experiment was more than 9 hours.

[6] = Pharmacokinetics in male ICR mice; conditions: mouse, plasma, 5 mg/kg
Protocol: The tail vein was used for i.v. injections. […] Following injections, blood samples were obtained via the retro-orbital vein at 5 min, 1, 2, 4, 6, 8, 12, and 24 hours postdose. Plasma was obtained from the blood samples following mixing with sodium heparin and centrifugation.
LC analysis was done using an Agilent 100 HPLC. MS analysis was done using an AB Sciex API 4000. Calibration standards were prepared by serial dilution.
The maximum observed concentration (Cmax), terminal half-life (T1/2), total body clearance (CL), volume of distribution (Vz), area under the curve from the time of dosing to the last measurable concentration (AUC0-t), area under the curve from the time of dosing extrapolated to infinity (AUC0-inf), and bioavailability were calculated using noncompartmental analysis modules in the FDA-certified pharmacokinetic program WinNonlin Professional v5.2 (Pharsight).
Briefly, the mice were administered 1 mg/kg or 5 mg/kg intravenously, or 5 mg/kg intraperitoneally. Blood samples were collected at 15 min, 1, 2, 3, 6, 8, 12, and 24 hours post administration.

[7] = FIG. 33B
Protocol: Table printed on a drawing sheet, FIG. 33B
The patent's description of the figure: FIG. 33A and FIG. 33B show PK data for WX-035 administered to male ICR mice (an outbred strain). The mice were treated with either 1 mg/kg, or 5 mg/kg WX-035 intravenously or 5 mg/kg WX-035 intraperitoneally.
First reader's note: Plasma PK parameters by route and dose; according to the description the animals are male ICR mice.

[8] = Toxicity study of WX-035 in balb/c nude mice (H&E of major organs); format: in vivo; conditions: 30 mg/kg or 40 mg/kg i.v., 7 consecutive days
Protocol: To assess the toxicity effect of WX-035, balb/c nude mice were administered with a vehicle, or 30 mg/kg, or 40 mg/kg WX-035, following the procedure described in Example 5.6. At the end of the study, the mice were sacrificed and major organs were harvested for H&E staining.

[9] = Pharmacokinetics in female balb/c nude mice; format: in vivo; conditions: mouse, plasma, sc, 10 mg/kg subcutaneously
Protocol: The pharmacokinetic profiles of the four additional polypeptides constructed in Example 10 were assessed following the procedures described in Example 5.1. WX-029 and WX-036 were administered 1 mg/kg intravenously to female balb/c nude mice. Blood samples were collected at 15 min, 1, 2, and 4 hours post administration. FIG. 39A and FIG. 39B summarize the plasma concentration and the pharmacokinetic profiles calculated for WX-029. FIG. 40A and FIG. 40B summarize the plasma concentration and the pharmacokinetic profiles calculated for WX-036.
Similarly, WX-039 and WX-040 were also tested in female balb/c nude mice and assessed for their pharmacokinetic profiles. WX-039 was administered at 5 mg/kg intravenously, 5 mg/kg intraperitoneally, or 10 mg/kg subcutaneously. WX-040 was administered at 30 mg/kg intravenously or 30 mg/kg intraperitoneally. Blood samples were collected at 15 min, 1, 2, 4, 8, 24, 36, 48, and 72 hours post administration. FIG. 41A and FIG. 41B summarize the plasma concentration and the pharmacokinetic profiles calculated for WX-039. FIG. 42A and FIG. 42B summarize the plasma concentration and the pharmacokinetic profiles calculated for WX-040.

[10] = system: B16F10 cells; experiment: B16F10 syngeneic model in C57BL/6 mice; format: in vivo; conditions: 12 days
Protocol: C57BL/6 mice were inoculated with B16F10 cells. Female C57BL/6 mice aged 4-5 weeks were inoculated with B16F10 cells (2×10^5 cells in 0.05 ml per mouse) in the right flank. When the average tumor size of the mice reached 100 mm^3, the mice were divided into two groups (N=6). […] The treatment was intraperitoneally administered daily for 14 consecutive days.
The treatment was intraperitoneally administered daily for 12 consecutive days. At the end of the treatment, the mice were sacrificed and tumor and blood samples were collected in anticoagulation tubes. Single cell separation was performed for each sample and then stained for FACS analysis. For cell surface staining, CD45-PerCP-Cy5, CD4-FITC, CD8-PE-Cy7, and CD25-PE were used. The tumor samples were then stained with either an anti-CD4 antibody or an anti-CD8 antibody to assess the presence of T cells in the tumor samples. The tumor samples were also stained with an anti-CD194 antibody and anti-CD196 antibody to assess the presence of T helper 17 cells in the tumor samples.
The process of constructing WX-039 is described in Example 10. C57BL/6 mice were inoculated with B16F10 cells. […] The treatment was intraperitoneally administered daily for 12 consecutive days. At the end of the treatment, the mice were sacrificed and tumor and blood samples were collected in anticoagulation tubes. Tumor cells collected from the experiment were stained as described above and also with anti-CD205 antibody to assess whether WX compounds are capable of modulating dendritic cells.
The ability of WX-039 to suppress tumor growth was assessed in the animal model described in Example 5.4. Briefly, C57BL/6 mice were inoculated with B16 cells. Female C57BL/6 mice aged 5 weeks were inoculated with B16F10 cells (2×10^5 cells in 0.05 ml per mouse) in the right flank. When the average tumor size of the mice reached 100 mm^3, the mice were divided into two groups (N=3). The first group was administered 60 mg/kg WX-039 while the second group was treated with a vehicle. The treatment was intraperitoneally administered daily for 12 consecutive days.

[11] = 20 mg/kg WX-024 or 60 mg/kg WX-039 i.p. daily

Compound: CC[C@H](C)[C@@H]1NC(=O)[C@@](C)(NC(=O)[C@H](CCCNC(=N)N)NC(=O)[C@H](CC(C)C)NC(=O)[C@]2(C)CCCC=CCCC[C@@](C)(NC(C)=O)C(=O)N[C@@H](CC(C)C)C(=O)N[C@@H](CCC(N)=O)C(=O)N2)CCCC=CCCC[C@@](C)(C(=O)N[C@@H](CC(C)C)C(=O)N[C@@H](Cc2ccc3ccccc3c2)C(=O)NCCC(=O)NCCC(N)=O)NC(=O)[C@H](CCCNC(=N)N)NC(=O)[C@H](CCC(N)=O)NC1=O [WX-035, Xaa1LQXaa2LRXaa3IQRXaa4L] (Ac-[R5]LQ[S5]LR[S5]IQR[S5]L[2Nal][βAla][βAla]-NH2; staple 1-4, 7-11)
- effect on cell viability / cell growth [1]: improved IC50 value as compared to WX-024
- AUCINF | [2]: 996.181 µg·h/mL and 997.708 µg·h/mL
- AUClast | [2]: 987.148 µg·h/mL and 996.029 µg·h/mL
- CL | [2]: 0.502 mL/min/kg
- CMAX | [2]: 102393 ng/mL
- MRTINF | hr [2]: 5.50 h
- TERMINAL t1/2 | hr [2]: 9.81 h and 7.03 h
- TMAX | hr [2]: 2.00 h
- Vss | [2]: 0.166 L/kg
- IC50 [3]: 1860 nM
- Foxp3+ CD25+ T cells in tumor ([4]; WX-035, 7 days): reduced
- LGR5 expression in intestine samples ([4]; WX-035, 7 days): reduced
- total amount of CD4+ or CD8+ T cells in tumor ([4]; WX-035, 7 days): reduced
- total amount of CD45+ cells in tumor ([4]; WX-035, 7 days): reduced
- ratio between cytotoxic T cells (CD8+) and Foxp3+ regulatory T cells ([4]; WX-035, 7 days, vs vehicle): increased
- average tumor growth inhibition ([4]; WX-035 i.p. for 7 consecutive days, day 7 / end of study): 88.44%
- half-life [5]: > 9 h
- half-life [6]: > 4 h
- F | % [7]: 72%
- H&E staining of major organs [8]: did not cause any significant abnormality to major organs

- half-life [9]: ~52 h
Compound: CC[C@H](C)[C@@H]1NC(=O)[C@@](C)(NC(=O)[C@H](CCCNC(=N)N)NC(=O)[C@H](CC(C)C)NC(=O)[C@]2(C)CCCC=CCCC[C@@](C)(NC(=O)[C@H](CCCNC(=N)N)NC(C)=O)C(=O)N[C@@H](CC(C)C)C(=O)N[C@@H](CCC(N)=O)C(=O)N2)CCCC=CCCC[C@@](C)(C(=O)N[C@@H](CC(C)C)C(=O)N[C@@H](Cc2ccc3ccccc3c2)C(=O)NCCC(=O)NCCC(N)=O)NC(=O)[C@H](CCCNC(=N)N)NC(=O)[C@H](CCC(N)=O)NC1=O [WX-039, RXaa1LQXaa2LRXaa3IQRXaa4L] (Ac-R[R5]LQ[S5]LR[S5]IQR[S5]L[2Nal][βAla][βAla]-NH2; staple 2-5, 8-12)
- T helper 17 cells in tumor [10, 11]: increased
- dendritic cells (CD205+) in tumor [10, 11]: capable of suppressing dendritic cells present in tumor
- body weight change ([10]; 60 mg/kg i.p. daily): no substantial body weight change
- tumor growth compared to vehicle ([10]; 60 mg/kg i.p. daily): reduced tumor growth

From patent US12264185B2, “Stabilized BCL9 peptides for treatment of aberrant Wnt signaling” (WntRx Pharmaceuticals Inc., priority 2015, dated 2025)
